Reference: PubChem BioAssay (NCI)
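Method: 48-hour compound exposure of cells in 96-well plates, five concentrations, linear interpolation of endpoints. GI50 = concentration required for 50% inhibition of growth. TGI marks complete inhibition of growth.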

How the values were obtained:
Experiment in all cases: DTP human tumour cell line panel, 48 h
[1] = system: RPMI-8226 leukemia
[2] = system: HOP-62 NSCLC
[3] = system: LOX IMVI melanoma
[4] = system: NCI-H522 lung
[5] = system: IGROV1 ovarian
[6] = system: T-47D breast
[7] = system: DU-145 prostate
[8] = system: CCRF-CEM leukemia
[9] = system: HCC-2998 colon
[10] = system: M14 melanoma
[11] = system: SF-268 CNS
[12] = system: NCI-H226 lung
[13] = system: MDA-MB-435
[14] = system: OVCAR-3 ovarian
[15] = system: HOP-92 NSCLC
[16] = system: ACHN renal
[17] = system: OVCAR-5 ovarian
[18] = system: RXF 393 renal
[19] = system: NCI/ADR-RES ovarian
[20] = system: EKVX NSCLC
[21] = system: SF-295 CNS
[22] = system: SN12C renal
[23] = system: SF-539 CNS
[24] = system: SNB-75 CNS
[25] = system: A549 NSCLC
[26] = system: HL-60(TB) leukemia
[27] = system: NCI-H23 lung
[28] = system: K-562 leukemia
[29] = system: HS 578T breast
[30] = system: UO-31 renal
[31] = system: KM12 colon
[32] = system: UACC-257 melanoma
[33] = system: UACC-62 melanoma
[34] = system: SW-620 colon
[35] = system: MCF7 breast
[36] = system: HCT-15 colon
[37] = system: COLO 205 colon
[38] = system: TK-10 renal
[39] = system: SR leukemia
[40] = system: HT29 colon
[41] = system: SK-OV-3 ovarian
[42] = system: CAKI-1 renal
[43] = system: SK-MEL-5 melanoma
[44] = system: OVCAR-8 ovarian
[45] = system: A498 renal
[46] = system: HCT-116 colon
[47] = system: 786-0 renal
[48] = system: NCI-H460 lung
[49] = system: MDA-MB-231 breast
[50] = system: U251 CNS
[51] = system: SNB-19 CNS
[52] = system: OVCAR-4 ovarian
[53] = system: PC-3 prostate
[54] = system: SK-MEL-2 melanoma
[55] = system: MALME-3M melanoma
[56] = system: MOLT-4 leukemia
[57] = system: SK-MEL-28 melanoma

CC(C)(C)OC(=O)N1N=CCC1c1ccccc1 (stereo unspecified)
TGI [1]: > 100 µM
TGI [2]: > 100 µM
TGI [3]: > 100 µM
TGI [4]: > 100 µM
TGI [5]: > 100 µM
TGI [6]: > 100 µM
TGI [7]: > 100 µM
TGI [8]: > 100 µM
TGI [9]: > 100 µM
TGI [10]: > 100 µM
TGI [11]: > 100 µM
TGI [12]: > 100 µM
TGI [13]: > 100 µM
TGI [14]: > 100 µM
TGI [15]: > 100 µM
TGI [16]: > 100 µM
TGI [17]: > 100 µM
TGI [18]: > 100 µM
TGI [19]: > 100 µM
TGI [20]: > 100 µM
TGI [21]: > 100 µM
TGI [22]: > 100 µM
TGI [23]: > 100 µM
TGI [24]: > 100 µM
TGI [25]: > 100 µM
TGI [26]: > 100 µM
TGI [27]: > 100 µM
TGI [28]: > 100 µM
TGI [29]: > 100 µM
TGI [30]: > 100 µM
TGI [31]: > 100 µM
TGI [32]: > 100 µM
TGI [33]: > 100 µM
TGI [34]: > 100 µM
TGI [35]: > 100 µM
TGI [36]: > 100 µM
TGI [37]: > 100 µM
TGI [38]: > 100 µM
TGI [39]: > 100 µM
TGI [40]: > 100 µM
TGI [41]: > 100 µM
TGI [42]: > 100 µM
TGI [43]: > 100 µM
TGI [44]: > 100 µM
TGI [45]: > 100 µM
TGI [46]: > 100 µM
TGI [47]: > 100 µM
TGI [48]: > 100 µM

COc1ccc2cc1Oc1ccc(cc1)C[C@@H]1c3cc(c(OC)cc3CCN1C)Oc1c(OC)c(OC)cc3c1[C@H](C2)N(C)CC3
TGI [4]: 33.4 µM
TGI [5]: 72.9 µM
TGI [8]: 51.8 µM
TGI [9]: 25.8 µM
TGI [10]: 37.1 µM
TGI [11]: 60.8 µM
TGI [14]: > 100 µM
TGI [16]: 28.5 µM
TGI [49]: 29.9 µM
TGI [50]: > 100 µM
TGI [18]: 13.7 µM
TGI [21]: 34.2 µM
TGI [51]: 50 µM
TGI [23]: 23.6 µM
TGI [24]: 27.3 µM
TGI [26]: 30.8 µM
TGI [27]: 34.1 µM
TGI [28]: 23 µM
TGI [29]: 42.3 µM
TGI [32]: 28.9 µM
TGI [35]: 31 µM
TGI [36]: 25.1 µM
TGI [38]: 39.5 µM
TGI [39]: 9.91 µM
TGI [41]: > 100 µM
TGI [52]: 55.6 µM
TGI [43]: 25.1 µM
TGI [44]: 35.6 µM
TGI [45]: 42.5 µM
TGI [46]: > 100 µM
TGI [47]: 89.6 µM
TGI [48]: 29.7 µM

CCCCCCCCN=C(NCCCCCCCC)SCc1cccc2ccccc12
GI50 [1]: 2.05 µM
TGI [1]: 4.4 µM
GI50 [53]: 1.49 µM
TGI [53]: 2.89 µM
GI50 [54]: 2.14 µM
TGI [54]: 3.77 µM
GI50 [2]: 1.71 µM
TGI [2]: 3.13 µM
GI50 [3]: 1.59 µM
TGI [3]: 3.08 µM
GI50 [4]: 1.38 µM
TGI [4]: 2.87 µM
GI50 [55]: 1.46 µM
TGI [55]: 3.68 µM
GI50 [6]: 1.55 µM
TGI [6]: 3.01 µM
GI50 [7]: 1.8 µM
TGI [7]: 3.29 µM
GI50 [8]: 2.35 µM
TGI [8]: 9.69 µM
GI50 [9]: 1.62 µM
TGI [9]: 3.05 µM
GI50 [56]: 1.83 µM
TGI [56]: 4.19 µM
GI50 [10]: 1.44 µM
TGI [10]: 2.86 µM
GI50 [11]: 1.83 µM
TGI [11]: 3.37 µM
GI50 [12]: 1.52 µM
TGI [12]: 2.95 µM
GI50 [13]: 1.58 µM
TGI [13]: 3.03 µM
GI50 [14]: 1.72 µM
TGI [14]: 3.21 µM
GI50 [15]: 1.03 µM
TGI [15]: 2.28 µM
GI50 [17]: 1.36 µM
TGI [17]: 2.79 µM
GI50 [49]: 1.14 µM
TGI [49]: 2.55 µM
GI50 [50]: 1.59 µM
TGI [50]: 2.98 µM
GI50 [18]: 1.42 µM
TGI [18]: 2.78 µM
GI50 [19]: 1.62 µM
TGI [19]: 3.05 µM
GI50 [20]: 1.79 µM
TGI [20]: 3.49 µM
GI50 [21]: 1.51 µM
TGI [21]: 3.02 µM
GI50 [51]: 1.83 µM
TGI [51]: 3.45 µM
GI50 [22]: 1.27 µM
TGI [22]: 2.63 µM
GI50 [24]: 1.66 µM
TGI [24]: 3.18 µM
GI50 [25]: 1.67 µM
TGI [25]: 3.13 µM
GI50 [26]: 1.23 µM
TGI [26]: 3.01 µM
GI50 [27]: 1.14 µM
TGI [27]: 2.52 µM
GI50 [28]: 0.975 µM
TGI [28]: 3.26 µM
GI50 [29]: 1.61 µM
TGI [29]: 3.81 µM
GI50 [30]: 1.27 µM
TGI [30]: 2.86 µM
GI50 [31]: 1.68 µM
TGI [31]: 3.19 µM
GI50 [57]: 1.95 µM
TGI [57]: 3.44 µM
GI50 [32]: 1.75 µM
TGI [32]: 3.33 µM
GI50 [33]: 1.72 µM
TGI [33]: 3.22 µM
GI50 [34]: 1.65 µM
TGI [34]: 3.36 µM
GI50 [35]: 1.34 µM
TGI [35]: 2.8 µM
GI50 [36]: 1.19 µM
TGI [36]: 3.09 µM
GI50 [37]: 1.48 µM
TGI [37]: 2.95 µM
GI50 [38]: 1.74 µM
TGI [38]: 3.2 µM
GI50 [39]: 0.427 µM
TGI [39]: 2.39 µM
GI50 [40]: 0.839 µM
TGI [40]: 2.16 µM
GI50 [42]: 1.56 µM
TGI [42]: 2.97 µM
GI50 [52]: 1.32 µM
TGI [52]: 2.64 µM
GI50 [43]: 1.47 µM
TGI [43]: 2.8 µM
GI50 [44]: 1.64 µM
TGI [44]: 3.11 µM
GI50 [45]: 1.52 µM
TGI [45]: 2.9 µM
GI50 [46]: 0.73 µM
TGI [46]: 2.01 µM
GI50 [47]: 1.24 µM
TGI [47]: 2.7 µM
GI50 [48]: 1.69 µM
TGI [48]: 3.38 µM
